# “And” between values parts separate entries of the source, which are not always exact repeats. Equal entries are not always repeated.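 Method: 48-hour compound exposure of cells in 96-well plates, five concentrations, linear interpolation of endpoints. GI50: concentration for 50% inhibition of growth. TGI is the concentration that stops growth completely.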
# Tests used:
# Experiment in all cases: NCI-60 cell line screen, 48 h
# [1] = tested on: 786-0 renal
# [2] = tested on: A498 renal
# [3] = tested on: ACHN renal
# [4] = tested on: CCRF-CEM leukemia
# [5] = tested on: COLO 205 colon
# [6] = tested on: HL-60(TB) leukemia
# [7] = tested on: HOP-62 NSCLC
# [8] = tested on: HOP-92 NSCLC
# [9] = tested on: HT29 colon
# [10] = tested on: IGROV1 ovarian
# [11] = tested on: K-562 leukemia
# [12] = tested on: KM12 colon
# [13] = tested on: KM20L2 colon
# [14] = tested on: LXFL 529 NSCLC
# [15] = tested on: M14 melanoma
# [16] = tested on: M19-MEL melanoma
# [17] = tested on: MALME-3M melanoma
# [18] = tested on: NCI-H23 lung
# [19] = tested on: NCI-H460 lung
# [20] = tested on: NCI-H522 lung
# [21] = tested on: OVCAR-3 ovarian
# [22] = tested on: OVCAR-4 ovarian
# [23] = tested on: OVCAR-5 ovarian
# [24] = tested on: RPMI-8226 leukemia
# [25] = tested on: RXF 393 renal
# [26] = tested on: SF-268 CNS
# [27] = tested on: SF-295 CNS
# [28] = tested on: SF-539 CNS
# [29] = tested on: SK-MEL-2 melanoma
# [30] = tested on: SK-MEL-28 melanoma
# [31] = tested on: SK-OV-3 ovarian
# [32] = tested on: SNB-19 CNS
# [33] = tested on: SNB-75 CNS
# [34] = tested on: SNB-78 CNS
# [35] = tested on: U251 CNS
# [36] = tested on: UACC-257 melanoma
# [37] = tested on: UACC-62 melanoma
# [38] = tested on: UO-31 renal
# [39] = tested on: A549 NSCLC
# [40] = tested on: BT-549 breast
# [41] = tested on: CAKI-1 renal
# [42] = tested on: DU-145 prostate
# [43] = tested on: EKVX NSCLC
# [44] = tested on: HCT-116 colon
# [45] = tested on: HCT-15 colon
# [46] = tested on: HS 578T breast
# [47] = tested on: LOX IMVI melanoma
# [48] = tested on: MCF7 breast
# [49] = tested on: MDA-MB-231 breast
# [50] = tested on: MDA-MB-435
# [51] = tested on: MDA-N
# [52] = tested on: NCI-H226 lung
# [53] = tested on: NCI/ADR-RES ovarian
# [54] = tested on: OVCAR-8 ovarian
# [55] = tested on: PC-3 prostate
# [56] = tested on: SK-MEL-5 melanoma
# [57] = tested on: SN12C renal
# [58] = tested on: SR leukemia
# [59] = tested on: SW-620 colon
# [60] = tested on: T-47D breast
# [61] = tested on: TK-10 renal
# [62] = tested on: HCC-2998 colon
# [63] = tested on: MOLT-4 leukemia
structure (smiles),measurement,setting,value
CCN(CC)CCN1C(=O)CC2[C@@H]3CCc4cc(OC)ccc4C3CC[C@]2(C)C1=O (stereo partly specified),TGI,[1],31.1 µM
same,TGI,[2],> 100 µM
same,TGI,[3],> 100 µM
same,TGI,[4],39.2 µM
same,TGI,[5],39.1 µM
same,TGI,[6],36.7 µM
same,TGI,[7],54.2 µM
same,TGI,[8],> 100 µM
same,TGI,[9],41.4 µM
same,TGI,[10],> 100 µM
same,TGI,[11],36.1 µM
same,TGI,[12],> 100 µM
same,TGI,[13],46 µM
same,TGI,[14],30.9 µM
same,TGI,[15],33.1 µM
same,TGI,[16],35.8 µM
same,TGI,[17],33.4 µM
same,TGI,[18],> 100 µM
same,TGI,[19],> 100 µM
same,TGI,[20],53.7 µM
same,TGI,[21],> 100 µM
same,TGI,[22],> 100 µM
same,TGI,[23],> 100 µM
same,TGI,[24],66 µM
same,TGI,[25],92.3 µM
same,TGI,[26],> 100 µM
same,TGI,[27],37.6 µM
same,TGI,[28],19.5 µM
same,TGI,[29],37.4 µM
same,TGI,[30],33.1 µM
same,TGI,[31],> 100 µM
same,TGI,[32],> 100 µM
same,TGI,[33],> 100 µM
same,TGI,[34],> 100 µM
same,TGI,[35],> 100 µM
same,TGI,[36],30.2 µM
same,TGI,[37],36 µM
same,TGI,[38],64.6 µM
S=C(S)N1CCCCC1,GI50,[1],12.9 µM and 64.5 µM
same,TGI,[1],> 406 µM
same,GI50,[39],71.6 µM
same,TGI,[39],> 406 µM
same,GI50,[3],19.6 µM and 54.3 µM
same,TGI,[3],> 406 µM
same,TGI,[40],> 406 µM
same,GI50,[41],19.9 µM
same,TGI,[41],99.1 µM and > 406 µM
same,TGI,[5],82.7 µM
same,TGI,[42],> 406 µM
same,GI50,[43],46.5 µM
same,TGI,[43],> 406 µM
same,GI50,[44],12 µM
same,TGI,[44],26.2 µM and 45.3 µM
same,GI50,[45],25.3 µM and 22.8 µM
same,TGI,[45],177 µM
same,GI50,[7],17 µM
same,TGI,[7],> 406 µM
same,GI50,[8],24.9 µM and 116 µM
same,TGI,[8],> 406 µM
same,TGI,[46],> 406 µM
same,GI50,[10],55.2 µM and 10.5 µM
same,TGI,[10],100 µM
same,GI50,[11],> 406 µM
same,GI50,[12],50.2 µM and 51.8 µM
same,TGI,[12],137 µM
same,GI50,[47],11.2 µM and 8.18 µM
same,TGI,[47],26.6 µM and 16.3 µM
same,GI50,[15],10.9 µM
same,TGI,[15],85.7 µM and 29.7 µM
same,TGI,[16],> 46.9 µM
same,GI50,[17],40.6 µM and 129 µM
same,TGI,[17],64.8 µM and > 406 µM
same,TGI,[48],88.3 µM
same,TGI,[49],> 406 µM
same,GI50,[50],20.4 µM
same,TGI,[50],67.9 µM and > 406 µM
same,GI50,[51],70.4 µM
same,TGI,[51],46.6 µM
same,GI50,[52],42.4 µM
same,TGI,[52],> 406 µM
same,GI50,[18],36.6 µM
same,TGI,[18],> 406 µM
same,TGI,[19],85 µM
same,GI50,[20],28 µM
same,GI50,[53],20.8 µM
same,TGI,[53],93.5 µM and 173 µM
same,TGI,[21],> 406 µM
same,GI50,[22],51 µM
same,TGI,[22],295 µM
same,TGI,[23],> 406 µM
same,GI50,[54],22.9 µM and 15.9 µM
same,TGI,[54],> 406 µM
same,TGI,[55],70.4 µM and > 406 µM
same,TGI,[24],68.3 µM and > 406 µM
same,TGI,[25],> 406 µM
same,GI50,[26],26 µM and 106 µM
same,TGI,[26],> 406 µM
same,GI50,[27],34 µM and 39.3 µM
same,TGI,[27],> 406 µM
same,GI50,[28],32.3 µM and 22.7 µM
same,TGI,[28],83.3 µM and > 406 µM
same,GI50,[29],28.2 µM and 54.1 µM
same,TGI,[29],84.6 µM and 179 µM
same,GI50,[30],89 µM
same,TGI,[30],> 406 µM
same,TGI,[56],81.5 µM
same,TGI,[31],353 µM
same,GI50,[57],89.7 µM and 49.8 µM
same,TGI,[57],> 406 µM
same,TGI,[32],> 406 µM
same,GI50,[33],28 µM
same,TGI,[33],> 406 µM
same,GI50,[58],17.5 µM and 80.7 µM
same,TGI,[58],67 µM and > 406 µM
same,GI50,[59],21.6 µM and 18.4 µM
same,TGI,[59],66.1 µM and 63.6 µM
same,GI50,[60],45.7 µM
same,TGI,[60],299 µM
same,TGI,[61],> 406 µM
same,GI50,[35],60.3 µM
same,TGI,[35],> 406 µM
same,GI50,[36],30.7 µM and 38 µM
same,TGI,[36],> 406 µM
same,GI50,[37],19.8 µM
same,TGI,[37],> 46.3 µM and 82.5 µM
same,GI50,[38],20.9 µM
same,TGI,[38],55.5 µM and 398 µM
CC1(C)Oc2ccccc2OC1O (stereo unspecified),TGI,[1],> 100 µM
same,TGI,[2],> 100 µM
same,TGI,[39],> 100 µM
same,TGI,[3],> 100 µM
same,TGI,[40],> 100 µM
same,TGI,[41],> 100 µM
same,TGI,[4],> 100 µM
same,TGI,[5],> 100 µM
same,TGI,[42],> 100 µM
same,TGI,[43],> 100 µM
same,TGI,[62],> 100 µM
same,TGI,[44],> 100 µM
same,TGI,[45],> 100 µM
same,TGI,[6],> 100 µM
same,TGI,[7],> 100 µM
same,TGI,[8],> 100 µM
same,TGI,[46],> 100 µM
same,TGI,[9],> 100 µM
same,TGI,[10],> 100 µM
same,TGI,[11],> 100 µM
same,TGI,[12],> 100 µM
same,TGI,[47],> 100 µM
same,TGI,[15],> 100 µM
same,TGI,[17],> 100 µM
same,TGI,[48],> 100 µM
same,TGI,[49],> 100 µM
same,TGI,[50],> 100 µM
same,TGI,[51],> 100 µM
same,TGI,[63],> 100 µM
same,TGI,[52],> 100 µM
same,TGI,[18],> 100 µM
same,TGI,[19],> 100 µM
same,TGI,[20],> 100 µM
same,TGI,[53],> 100 µM
same,TGI,[21],> 100 µM
same,TGI,[22],> 100 µM
same,TGI,[23],> 100 µM
same,TGI,[54],> 100 µM
same,TGI,[55],> 100 µM
same,TGI,[24],> 100 µM
same,TGI,[25],> 100 µM
same,TGI,[26],> 100 µM
same,TGI,[27],> 100 µM
same,TGI,[28],> 100 µM
same,TGI,[29],> 100 µM
same,TGI,[30],> 100 µM
same,TGI,[56],> 100 µM
same,TGI,[31],> 100 µM
same,TGI,[57],> 100 µM
same,TGI,[32],> 100 µM
same,TGI,[33],> 100 µM
same,TGI,[58],> 100 µM
same,TGI,[59],> 100 µM
same,TGI,[60],> 100 µM
same,TGI,[61],> 100 µM
same,TGI,[35],> 100 µM
same,TGI,[36],> 100 µM
same,TGI,[37],> 100 µM
same,TGI,[38],> 100 µM
